# How the values were obtained:
# P2X7 [1] = biological target: T1, P2X7 (Homo sapiens (Human), UniProt Q99572); experiment: Radioligand binding, tritiated A-804598, human P2X7-1321N1 cell membranes; settings: 1 hour at 4° C.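 Also: ki obtained from the binding IC50 after correction for tracer concentration and tracer affinity.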
# Method: On the day of the experiment, cell membrane preparations were made according to standard published methods. […] The assay was terminated by filtration (GF/B filters pre-soaked with 0.3% PEI) and washed with washing buffer (Tris-HCl 50 mM). The IC50 generated in the binding assay was corrected for tracer concentration and affinity of the tracer to derive at the affinity (Ki) of the test compounds.
# P2X7 [2] = biological target: T1, P2X7; experiment: P2X7 antagonism in human PBMCs (LPS + Bz-ATP induced IL-1β release, ELISA); type: cell-based; settings: LPS 30 ng/ml, Bz-ATP 0.5 mM; for PBMC 10 μM (% control): compound 10 μM; for PBMC 1 μM (% control): compound 1 μM;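 as to all read-outs here: PBMCs from donor human blood, with a further 1.5 h incubation of the cells in the assay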
# rat P2X7 = rat P2X7 (Rattus norvegicus (Rat), UniProt Q64663); experiment: Ca2+ flux (FLIPR) in 1321N1 cells expressing recombinant rat P2X7 channel; type: cell-based; settings: 250 μM BzATP;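 also: Calcium-4 dye fluorescence change read 180 s after agonist addition, following 30 min cell preincubation with test compound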
# P2X7 [3] = biological target: T1, P2X7; experiment: Ca2+ flux (FLIPR) in 1321N1 cells expressing recombinant human P2X7 channel; type: cell-based; settings: 250 μM BzATP;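 also: Calcium-4 dye-loaded cells exposed to compound for 30 min before agonist addition, fluorescence change read 180 s after agonist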
# Chain of rat P2X7 (Q64663 whole entry): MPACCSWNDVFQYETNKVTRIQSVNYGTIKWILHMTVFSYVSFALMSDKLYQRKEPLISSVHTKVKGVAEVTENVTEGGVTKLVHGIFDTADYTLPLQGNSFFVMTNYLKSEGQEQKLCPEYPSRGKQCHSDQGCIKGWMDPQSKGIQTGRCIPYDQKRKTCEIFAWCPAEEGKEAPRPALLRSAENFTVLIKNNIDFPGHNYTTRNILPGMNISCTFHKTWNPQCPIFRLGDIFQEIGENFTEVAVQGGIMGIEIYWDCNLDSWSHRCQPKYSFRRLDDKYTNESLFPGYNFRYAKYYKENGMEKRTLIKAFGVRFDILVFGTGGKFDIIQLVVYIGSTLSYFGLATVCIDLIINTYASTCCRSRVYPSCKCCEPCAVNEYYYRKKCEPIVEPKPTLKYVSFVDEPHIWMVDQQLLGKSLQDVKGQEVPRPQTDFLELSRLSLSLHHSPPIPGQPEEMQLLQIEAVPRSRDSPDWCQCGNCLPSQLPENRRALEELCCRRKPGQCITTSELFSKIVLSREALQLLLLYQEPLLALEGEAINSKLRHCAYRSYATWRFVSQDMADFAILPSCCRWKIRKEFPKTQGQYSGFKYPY
# T1 sequence (Q99572 whole entry): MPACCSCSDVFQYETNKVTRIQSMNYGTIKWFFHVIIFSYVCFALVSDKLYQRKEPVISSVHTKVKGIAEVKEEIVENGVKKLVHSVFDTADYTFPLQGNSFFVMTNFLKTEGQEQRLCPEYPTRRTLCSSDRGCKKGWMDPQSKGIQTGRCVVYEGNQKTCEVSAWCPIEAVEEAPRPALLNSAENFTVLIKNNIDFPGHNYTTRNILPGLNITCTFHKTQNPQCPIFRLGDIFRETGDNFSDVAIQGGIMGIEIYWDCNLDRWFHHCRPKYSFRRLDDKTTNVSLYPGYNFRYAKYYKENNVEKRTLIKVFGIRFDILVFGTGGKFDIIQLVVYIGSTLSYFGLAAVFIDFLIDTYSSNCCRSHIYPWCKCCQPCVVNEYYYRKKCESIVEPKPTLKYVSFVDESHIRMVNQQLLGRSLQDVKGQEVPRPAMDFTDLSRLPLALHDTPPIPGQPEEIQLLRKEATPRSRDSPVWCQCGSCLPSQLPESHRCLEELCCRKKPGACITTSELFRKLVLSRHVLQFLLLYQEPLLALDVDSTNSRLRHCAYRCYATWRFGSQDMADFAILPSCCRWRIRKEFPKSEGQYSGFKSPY
Structure (SMILES),Ki (P2X7 [1]),PBMC 10 μM (% control) (P2X7 [2]),IC50 (rat P2X7),IC50 (P2X7 [3]),PBMC 1 μM (% control) (P2X7 [2])
"CC1Cc2c(nnn2-c2ncc(F)cn2)CN1C(=O)c1ccc(Cl)c(F)c1Cl (centres unmarked) [Example 216, 5-[(2,4-Dichloro-3-fluorophenyl)carbonyl]-1-(5-fluoropyrimidin-2-yl)-6-methyl-4,5,6,7-tetrahydro-1H-[1,2,3]triazolo[4,5-c]pyridine]",0.0126 µM,0.6 % control,,,
"CC1c2ncn(-c3ccc(F)cn3)c2CCN1C(=O)c1ccccc1F (centres unmarked) [Example 264, (2-fluorophenyl)(1-(5-fluoropyridin-2-yl)-4-methyl-6,7-dihydro-1H-imidazo[4,5-c]pyridin-5(4H)-yl)methanone]",,89.5 % control,> 10 µM,> 10 µM,
"CC1Cc2c(-c3ccn[nH]3)n[nH]c2CN1C(=O)c1ccc(Cl)cc1Cl (centres unmarked) [Example 268, (2,4-dichlorophenyl)(5-methyl-3-(1H-pyrazol-5-yl)-4,5-dihydro-1H-pyrazolo[3,4-c]pyridin-6(7H)-yl)methanone]",,−59.9 % control,1.22 µM,0.6 µM,
"CC1c2c(nnn2-c2ccccc2)CCN1C(=O)c1cccc(C(F)(F)F)c1Cl (centres unmarked) [Example 289, (2-chloro-3-(trifluoromethyl)phenyl)(4-methyl-3-phenyl-6,7-dihydro-3H-[1,2,3]triazolo[4,5-c]pyridin-5(4H)-yl)methanone]",,−27.6 % control,2.41 µM,1.19 µM,
"CCc1cccnc1-n1nnc2c1CCN(C(=O)c1cccc(C(F)(F)F)c1)C2C (centres unmarked) [Example 295, (1-(3-ethylpyridin-2-yl)-4-methyl-6,7-dihydro-1H-[1,2,3]triazolo[4,5-c]pyridin-5(4H)-yl)(3-(trifluoromethyl)phenyl)methanone]",,10.1 % control,> 10 µM,> 10 µM,
"CC1c2nn(COCC[Si](C)(C)C)c(-c3ncc(F)cn3)c2CCN1C(=O)c1cccc(C(F)(F)F)c1Cl (centres unmarked) [Example 303, (2-chloro-3-(trifluoromethyl)phenyl)(3-(5-fluoropyrimidin-2-yl)-7-methyl-2-((2-(trimethylsilyl)ethoxy)methyl)-4,5-dihydro-2H-pyrazolo[3,4-c]pyridin-6(7H)-yl)methanone]",,−1.6 % control,5.19 µM,6.92 µM,
"C[C@H]1Cc2c(nnn2-c2ncc(F)cn2)CN1C(=O)c1cc(F)cc(C(F)(F)F)c1 [Example 307, (S)-(3-fluoro-5-(trifluoromethyl)phenyl)(1-(5-fluoropyrimidin-2-yl)-6-methyl-6,7-dihydro-1H-[1,2,3]triazolo[4,5-c]pyridin-5(4H)-yl)methanone]",,2.2 % control,10.7 µM,> 10 µM,
"CC1c2[nH]nc(C(F)(F)F)c2CCN1C(=O)c1cccc(C(F)(F)F)c1Cl (centres unmarked) [Example 308, (2-chloro-3-(trifluoromethyl)phenyl)(7-methyl-3-(trifluoromethyl)-4,5-dihydro-1H-pyrazolo[3,4-c]pyridin-6(7H)-yl)methanone]",,22.9 % control,> 10 µM,> 10 µM,
"O=C(c1cccc(C(F)(F)F)c1F)N1CCc2c(ncn2-c2ccc(F)cn2)C1 [Example 314, (2-fluoro-3-(trifluoromethyl)phenyl)(1-(5-fluoropyridin-2-yl)-6,7-dihydro-1H-imidazo[4,5-c]pyridin-5(4H)-yl)methanone]",,18.7 % control,> 10 µM,2.83 µM,
"Cn1nc2c(c1-c1ccncc1)CCN(C(=O)c1cccc(C(F)(F)F)c1Cl)C2 [Example 327, (2-chloro-3-(trifluoromethyl)phenyl)(2-methyl-3-(pyridin-4-yl)-4,5-dihydro-2H-pyrazolo[3,4-c]pyridin-6(7H)-yl)methanone]",,,> 10 µM,> 10 µM,93.1 % control
"Cn1nc2c(c1-c1ccncc1)CCN(C(=O)c1cccc(Cl)c1Cl)C2 [Example 328, (2,3-dichlorophenyl)(2-methyl-3-(pyridin-4-yl)-4,5-dihydro-2H-pyrazolo[3,4-c]pyridin-6(7H)-yl)methanone]",,,> 10 µM,> 10 µM,88.0 % control
"Cn1nc2c(c1-c1cncnc1)CCN(C(=O)c1cccc(Cl)c1Cl)C2 [Example 329, (2,3-dichlorophenyl)(2-methyl-3-(pyrimidin-5-yl)-4,5-dihydro-2H-pyrazolo[3,4-c]pyridin-6(7H)-yl)methanone]",,,> 10 µM,> 10 µM,99.5 % control
"O=C(c1cccc(Cl)c1Cl)N1CCc2c(n[nH]c2-c2cncnc2)C1 [Example 330, (2,3-dichlorophenyl)(3-(pyrimidin-5-yl)-4,5-dihydro-2H-pyrazolo[3,4-c]pyridin-6(7H)-yl)methanone]",,33.8 % control,> 10 µM,> 10 µM,

# Source: patent US9464084B2, “P2X7 modulators” (Janssen Pharmaceutica NV, priority 2013, dated 2016)
